Assay results taken from PubChem BioAssay (NCI).
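In this assay, cells in 96-well plates receive the compound at five concentrations for 48 hours. Endpoints are linearly interpolated between the surrounding concentrations. GI50 = concentration required for 50% inhibition of growth. At the TGI there is no net growth.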

Assays:
Experiment in all cases: NCI tumour cell line growth inhibition, 48 h
HCC-2998 colon = tested on: HCC-2998 colon
NCI-H522 lung = tested on: NCI-H522 lung
SR leukemia = tested on: SR leukemia
CAKI-1 renal = tested on: CAKI-1 renal
MDA-MB-435 = tested on: MDA-MB-435
SK-MEL-28 melanoma = tested on: SK-MEL-28 melanoma
MALME-3M melanoma = tested on: MALME-3M melanoma
MDA-MB-231 breast = tested on: MDA-MB-231 breast
HL-60(TB) leukemia = tested on: HL-60(TB) leukemia
HCT-116 colon = tested on: HCT-116 colon

| SMILES | GI50 (HCC-2998 colon) | TGI (HCC-2998 colon) | GI50 (NCI-H522 lung) | TGI (NCI-H522 lung) | GI50 (SR leukemia) | TGI (SR leukemia) | GI50 (CAKI-1 renal) | TGI (CAKI-1 renal) | GI50 (MDA-MB-435) | TGI (MDA-MB-435) | GI50 (SK-MEL-28 melanoma) | TGI (SK-MEL-28 melanoma) | GI50 (MALME-3M melanoma) | TGI (MALME-3M melanoma) | GI50 (MDA-MB-231 breast) | TGI (MDA-MB-231 breast) | GI50 (HL-60(TB) leukemia) | TGI (HL-60(TB) leukemia) | GI50 (HCT-116 colon) | TGI (HCT-116 colon) |
| --- | --- | --- | --- | --- | --- | --- | --- | --- | --- | --- | --- | --- | --- | --- | --- | --- | --- | --- | --- | --- |
| CNCCCn1c2c(c3ccc([N+](=O)[O-])cc3c1=O)C(=O)c1cc(OC)cnc1-2 | 204 nM | 1060 nM | 83.8 nM | 464 nM | 12.3 nM | 1750 nM | 34.6 nM | 342 nM | 150 nM | 1170 nM | 387 nM | 2100 nM | 175 nM | 923 nM | 265 nM | 1720 nM | 41.3 nM | 921 nM | 28.3 nM | 186 nM |
| Cc1ccc(-c2nc(C#N)c(S(=O)(=O)n3nc(C)cc3N)o2)cc1 | 19500 nM | 38000 nM | 1650 nM | 3580 nM | 2060 nM | 6910 nM | 4300 nM | 14200 nM | 10500 nM | 22700 nM | 12700 nM | 25600 nM | 1820 nM | 3540 nM | 2420 nM | 6310 nM | 2000 nM | 5420 nM | 3160 nM | 13200 nM |
| O=C(N/C(=C/c1ccc(Cl)cc1Cl)c1nc2ccccc2s1)c1ccccc1 |  |  |  | 24700 nM |  | > 100000 nM |  | 30000 nM |  | 30200 nM |  | 34200 nM |  | 31100 nM |  | 22300 nM |  | > 100000 nM |  | > 100000 nM |
| O=C1c2cccc(NCCN=Cc3cc([N+](=O)[O-])ccc3O)c2C(=O)c2c(NCCN=Cc3cc([N+](=O)[O-])ccc3O)cccc21 | 5870 nM | > 100000 nM | 4070 nM | > 100000 nM | 1490 nM | > 100000 nM |  |  | 4280 nM | > 100000 nM | 14900 nM | > 100000 nM | 16700 nM | 83200 nM | 3120 nM | 71700 nM | 38800 nM | > 100000 nM | 1280 nM | 81500 nM |
| COc1c(O)cc2oc(-c3ccc(O)cc3)cc(=O)c2c1O |  | 80300 nM |  | > 100000 nM |  | 63600 nM |  |  |  | > 100000 nM |  | > 100000 nM |  | > 100000 nM |  | > 100000 nM |  | > 100000 nM |  | > 100000 nM |
| O=C(Nc1ccncc1)C(=O)c1cn(Cc2ccc(Cl)cc2)c2ccccc12 | 114 nM | > 100000 nM |  |  | 29.8 nM | > 100000 nM | 35.5 nM | > 100000 nM | < 10 nM | 44 nM | 71.1 nM | > 100000 nM | 41.4 nM | > 100000 nM | 179 nM | > 100000 nM | 32.7 nM | 237 nM | 48 nM | > 100000 nM |
| CCCCC[C@H]1C/C=C2/C(=O)C=C[C@@H]2C/C=C\CCCC(=O)O[C@@H](CCCCC)C/C=C2/C(=O)C=C[C@@H]2C/C=C\CCCC(=O)O1 | 422 nM | 816 nM | 160 nM | 655 nM | 82.5 nM | 520 nM |  |  | 95.9 nM | 412 nM | 196 nM | 675 nM | 338 nM | 885 nM | 132 nM | 2170 nM | 136 nM | 704 nM | 89.6 nM | 333 nM |
| O=C1C(N2CC2)=C(N2CC2)C(=O)C(N2CC2)=C1N1CC1 | 168 nM | 569 nM | 432 nM | 2210 nM | 34.5 nM | > 100000 nM | 37.1 nM | 2180 nM | 706 nM | 2300 nM | 838 nM | 2320 nM | 225 nM | 1310 nM | 14900 nM | 56100 nM | 201 nM | 8640 nM |  |  |
| COc1cccc2c1ccc1nc3cccc(C(=O)N[C@H](C)CN(C)C)c3nc12 | 108 nM | 298 nM | 57.9 nM | 279 nM | 31.5 nM |  |  |  | 97.6 nM | 986 nM | 221 nM | 1510 nM | 80.6 nM | 473 nM | 178 nM | 3250 nM | 320 nM | 1980 nM | 37.9 nM | 508 nM |
| COc1cccc(-c2nn(-c3ccccc3)cc2-c2ccnc(NCCCNC(=O)Nc3ccc(Cl)c(Cl)c3)c2)c1 | 2170 nM | 4220 nM |  |  | 1730 nM | 4620 nM | 3160 nM | 15000 nM | 2010 nM | 4820 nM | 1930 nM | 4160 nM | 1860 nM | 3900 nM | 1970 nM | 5030 nM | 2510 nM | 5810 nM | 2330 nM | 5750 nM |
| CCCc1cc(=O)[nH]c(-n2nc(C)cc2C)n1 | 14300 nM | > 100000 nM | 4980 nM | 30700 nM | 3460 nM | > 100000 nM | 2470 nM | 26300 nM | 4670 nM | 32400 nM | 3800 nM | 40400 nM |  |  | 4470 nM | > 100000 nM | 2040 nM | 20700 nM | 3300 nM | 67300 nM |
